Numbers after ± are expanded uncertainties.
Test: molar heat capacity at constant pressure
Conditions: 101.33 kPa, Crystal 2, Small (less than 1 g) adiabatic calorimetry

O=S(=O)([O-])[O-].[Sr+2] [sulfuric acid, strontium salt (1:1)]
Conditions	molar heat capacity at constant pressure [J/K/mol]
239.54 K	89.39 ± 0.56
239.99 K	89.5 ± 0.56
240 K	89.75 ± 0.56
242.4 K	90.05 ± 0.56
242.63 K	89.95 ± 0.56
243.09 K	90.06 ± 0.56
245.47 K	90.64 ± 0.56
245.71 K	90.56 ± 0.56
246.17 K	90.67 ± 0.56
248.53 K	91.22 ± 0.57
248.77 K	91.15 ± 0.56
249.24 K	91.23 ± 0.57
250 K	91.7 ± 0.57
251.58 K	91.85 ± 0.57
251.81 K	91.78 ± 0.57
252.29 K	91.85 ± 0.57
254.61 K	92.43 ± 0.57
254.84 K	92.37 ± 0.57
255.33 K	92.47 ± 0.57
257.63 K	93 ± 0.57
257.87 K	92.94 ± 0.57
258.36 K	93.06 ± 0.57
260 K	93.66 ± 0.57
260.65 K	93.58 ± 0.57
260.88 K	93.56 ± 0.57
261.38 K	93.65 ± 0.57
263.66 K	94.16 ± 0.58
263.89 K	94.13 ± 0.58
264.39 K	94.26 ± 0.58
266.66 K	94.77 ± 0.58
266.89 K	94.7 ± 0.58
267.4 K	94.85 ± 0.58
269.66 K	95.39 ± 0.58
269.89 K	95.3 ± 0.58
270 K	95.59 ± 0.58
270.4 K	95.47 ± 0.58
272.64 K	95.96 ± 0.58
272.87 K	95.81 ± 0.58
273.15 K	96.15 ± 0.58
273.39 K	95.92 ± 0.58
275.63 K	96.38 ± 0.59
275.85 K	96.25 ± 0.58
276.38 K	96.39 ± 0.59
278.61 K	96.87 ± 0.59
278.83 K	96.75 ± 0.59
279.36 K	96.87 ± 0.59
280 K	97.3 ± 0.59
281.59 K	97.38 ± 0.59
281.8 K	97.23 ± 0.59
282.43 K	97.36 ± 0.59
284.56 K	97.83 ± 0.59
284.76 K	97.73 ± 0.59
285.4 K	97.91 ± 0.59
287.65 K	98.39 ± 0.59
287.81 K	98.24 ± 0.59
288.36 K	98.43 ± 0.59
290 K	98.96 ± 0.6
290.61 K	98.91 ± 0.6
290.76 K	98.75 ± 0.6
291.32 K	98.96 ± 0.6
293.57 K	99.37 ± 0.6
293.71 K	99.22 ± 0.6
294.28 K	99.43 ± 0.6
296.52 K	99.84 ± 0.6
296.64 K	99.69 ± 0.6
297.22 K	99.88 ± 0.6
298.15 K	100.3 ± 0.6
299.46 K	100.34 ± 0.6
299.56 K	100.14 ± 0.6
300 K	100.59 ± 0.6
300.17 K	100.26 ± 0.6
302.4 K	100.79 ± 0.6
302.48 K	100.58 ± 0.6
303.1 K	100.8 ± 0.6
305.33 K	101.19 ± 0.6
305.39 K	101 ± 0.6
306.03 K	101.22 ± 0.6
308.26 K	101.58 ± 0.61
308.3 K	101.41 ± 0.61
308.95 K	101.59 ± 0.61
310 K	102.03 ± 0.61
311.18 K	102.01 ± 0.61
311.19 K	101.81 ± 0.61
311.87 K	101.99 ± 0.61
314.08 K	102.29 ± 0.61
314.09 K	102.44 ± 0.61
314.78 K	102.4 ± 0.61
316.97 K	102.72 ± 0.61
316.99 K	102.82 ± 0.61
317.69 K	102.79 ± 0.61
319.85 K	103.14 ± 0.61
319.89 K	103.15 ± 0.61
320 K	103.44 ± 0.61
320.59 K	103.18 ± 0.61
322.73 K	103.57 ± 0.61
322.78 K	103.57 ± 0.61
